Where “and” joins values, the source holds several entries; their conditions need not be identical. Equal entries are not always repeated.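 Dose response: 5 concentrations. Exposure: 48 h. Format: 96-well plates. Endpoint: linear interpolation; highest concentration if not reached. GI50: concentration for 50% inhibition of growth. At the TGI there is no net growth.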
Assays:
Assay in all cases: growth of human tumour cells (NCI), 48 h
HCT-116 colon = system: HCT-116 colon
HT29 colon = system: HT29 colon
MDA-MB-435 = system: MDA-MB-435
HCT-15 colon = system: HCT-15 colon
NCI-H460 lung = system: NCI-H460 lung
HS 578T breast = system: HS 578T breast

Structure (SMILES) | GI50 (HCT-116 colon) [µM] | TGI (HCT-116 colon) [µM] | GI50 (HT29 colon) [µM] | TGI (HT29 colon) [µM] | GI50 (MDA-MB-435) [µM] | TGI (MDA-MB-435) [µM] | GI50 (HCT-15 colon) | TGI (HCT-15 colon) [µM] | GI50 (NCI-H460 lung) [µM] | TGI (NCI-H460 lung) [µM] | GI50 (HS 578T breast) | TGI (HS 578T breast) [µM]
N#C/C(=C\c1ccc(F)cc1)n1nc2cccc(F)c2n1 | 3.57 | > 100 | 3.89 | > 100 | 1.89 | 4.62 | 2.58 µM | > 100 | 3.01 | 12.9 |  | 
CC(C)OCc1cc(CN2CCN(c3cccc(Cl)c3)CC2)c(O)c2ncccc12 | 0.425 | 3.79 | 6.76 | 21.8 | 0.923 | 11.4 | 0.153 µM | 17.6 | 0.41 | 11.2 | 4.03 µM | 35.3
Cn1c(=O)c2[nH]c(CCCc3ccc([N+](=O)[O-])cc3)nc2n(C)c1=O |  | > 100 |  | > 100 |  | > 100 |  | > 100 |  | > 100 |  | > 100
Oc1ccc(Cc2ccc(O)c(C3CC(c4ccc(Cl)cc4)=NN3)c2)cc1C1CC(c2ccc(Cl)cc2)=NN1 (stereo not given) | 1.72 | 5.59 | 6.41 | > 44.6 | 3.23 | 20.2 | 2.26 µM | > 35.8 | 2.19 | 8.87 | 2.48 µM | 24.8
O=c1[nH]c(F)nc2c1ncn2C1OC(CO)C(O)C1O (stereo not given) | > 100 | > 100 |  |  | > 100 | > 100 | > 100 µM | > 100 | > 100 | > 100 | > 100 µM | > 100
O=C(/C=C/c1nnc2n(Cc3ccccc3)c(=O)c3c4c(sc3n12)CCCC4)c1ccccc1 | 0.31 | 1.12 |  |  | 3.54 |  | 2.04 µM and 0.389 µM | > 100 | > 100 | > 100 | 3.76 µM and 0.502 µM | > 100
CCOC(=O)[C@@H](C)C[C@H](Cc1ccccc1)NC(=O)c1csc([C@@H](C[C@H](C(C)C)N(C)C(=O)[C@@H](NC(=O)[C@H]2C[C@H](O)CCN2C)C(C)C)OC(C)=O)n1 |  |  | 0.0023 | > 16.7 |  |  | 0.149 µM | > 16.7 | 0.0063 | > 16.7 | 0.00906 µM | > 16.7
CCN(CC)CC(O)COc1c(Br)c(Br)c(Br)c2c1OC(C)(C)C2 (stereo not given) | 3.85 | > 100 | 1.82 | 3.91 | 2.66 | 7.31 | 4.74 µM | 14.7 | 3.28 | 11.6 | 4.58 µM | 19
COc1cc2c(cc1OCCCCn1c(-c3cccs3)nc3ccccc31)N=C[C@@H]1CCCN1C2=O | 1.75 |  | 1.97 | 14.6 | 1.39 | 3.75 | 3.19 µM | 10.5 | 1.55 | 4.38 | 1.7 µM | 6.43
CC1(C)OC2C(CO)OC(n3ccc(N)nc3=O)C2O1 (stereo not given) |  | > 100 |  |  |  | > 100 |  | > 100 |  | > 100 |  | > 100
N#Cc1c2ccccc2c2nnc3ccccc3n12 | 28 | > 100 | 42.6 | > 100 | 33.5 | > 100 | 21.5 µM | > 100 | 31.9 | > 100 |  | 

— PubChem BioAssay (NCI)
